Legend:
[1] = target: T1, 5-hydroxytryptamine receptor 3A (Cavia porcellus, UniProt O70212); assay: Antagonist activity at 5HT3 receptor in guinea pig ileum longitudinal muscle myenteric plexus assessed as inhibition of 2-methyl-5-HT-induced contraction; format: functional, tissue-based; conditions: read-out: pA2 (converted)
T1 sequence (O70212 whole entry): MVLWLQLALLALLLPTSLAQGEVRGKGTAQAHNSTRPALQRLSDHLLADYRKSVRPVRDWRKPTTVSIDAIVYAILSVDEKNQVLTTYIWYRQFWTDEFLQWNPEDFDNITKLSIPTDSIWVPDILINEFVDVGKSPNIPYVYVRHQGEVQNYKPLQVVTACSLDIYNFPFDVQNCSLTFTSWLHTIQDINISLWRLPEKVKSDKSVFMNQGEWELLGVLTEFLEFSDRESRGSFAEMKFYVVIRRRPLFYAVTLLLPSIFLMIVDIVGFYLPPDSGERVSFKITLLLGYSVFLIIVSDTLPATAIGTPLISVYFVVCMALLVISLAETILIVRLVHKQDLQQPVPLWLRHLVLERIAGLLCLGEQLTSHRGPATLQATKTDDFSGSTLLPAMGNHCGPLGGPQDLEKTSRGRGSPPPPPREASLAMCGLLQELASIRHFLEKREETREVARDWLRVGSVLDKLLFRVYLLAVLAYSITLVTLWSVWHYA

Mus musculus [2] = assay: Antidepressant-like activity in mouse assessed as immobility time at 1 mg/kg, ip by forced swimming test; format: functional; conditions: route intraperitoneal
Mus musculus [3] = assay: Antidepressant-like activity in mouse assessed as immobility time at 0.5 mg/kg, ip by forced swimming test; format: functional; conditions: route intraperitoneal
Mus musculus [4] = assay: Antidepressant-like activity in mouse assessed as immobility time at 2 mg/kg, ip by forced swimming test; format: functional; conditions: route intraperitoneal
Mus musculus [5] = assay: Toxicity in mouse assessed as induction of spontaneous locomotor activity at 1 mg/kg, ip after 10 mins by actophotometry; format: organism-based; design: dose 1 mg/kg, route intraperitoneal; conditions: in vivo
Mus musculus [6] = assay: Toxicity in mouse assessed as induction of spontaneous locomotor activity at 0.5 mg/kg, ip after 10 mins by actophotometry; format: organism-based; design: dose 0.5 mg/kg, route intraperitoneal; conditions: in vivo
Mus musculus [7] = assay: Toxicity in mouse assessed as induction of spontaneous locomotor activity at 2 mg/kg, ip after 10 mins by actophotometry; format: organism-based; design: dose 2 mg/kg, route intraperitoneal; conditions: in vivo

Question: Which results are given for `O=C(NC1CCCCC1)c1cnc2ccccc2n1`?
Answer: Kb [1]: 1000 nM; Time (Mus musculus [2]): 92.85 s; Time (Mus musculus [3]): 119 s; Time (Mus musculus [4]): 99 s; Activity (Mus musculus [5]): Non-toxic; Activity (Mus musculus [6]): Non-toxic; Activity (Mus musculus [7]): Non-toxic

Question: What does the source list for `Cc1ccc(NC(=O)c2cnc3ccccc3n2)cc1`?
Answer: Kb [1]: 6310 nM; Time (Mus musculus [2]): 105 s; Time (Mus musculus [3]): 140 s; Time (Mus musculus [4]): 97.23 s; Activity (Mus musculus [5]): Non-toxic; Activity (Mus musculus [6]): Non-toxic; Activity (Mus musculus [7]): Non-toxic

Question: With `O=C(Nc1ccccc1NC(=O)c1cnc2ccccc2n1)c1ccccc1` as the compound, how does the Kb [1] read?
Answer: The Kb was 100000 nM.

Question: What about the Time (Mus musculus [2]) of the same compound?
Answer: Its Time is 121 s.

Question: What about the Activity (Mus musculus [5]) of the same compound?
Answer: The Activity was “Non-toxic”.

Question: What about the Activity (Mus musculus [6]) of the same compound?
Answer: Its Activity is “Non-toxic”.

Question: And the Activity (Mus musculus [7])?
Answer: Its Activity is “Non-toxic”.

Question: How did the Kb [1] turn out when `O=C(Nc1ccccc1)c1cnc2ccccc2n1` was run?
Answer: Its Kb is 158 nM.

Question: What about the Time (Mus musculus [2]) of the same compound?
Answer: Its Time is 141 s.

Question: What about the Activity (Mus musculus [5]) of the same compound?
Answer: Its Activity is “Non-toxic”.

Question: And the Activity (Mus musculus [6])?
Answer: The Activity was “Non-toxic”.

Question: And the Activity (Mus musculus [7])?
Answer: Its Activity is “Non-toxic”.

Question: `Cc1nccn1CC1CCc2c(c3ccccc3n2C)C1=O` (stereo not drawn) [ONDANSETRON] was tested. Which Kb [1] did it give?
Answer: The Kb was 126 nM.

Question: And the Time (Mus musculus [2])?
Answer: Its Time is 100.4 s.

Question: And the Time (Mus musculus [3])?
Answer: Its Time is 130.2 s.

Question: And the Time (Mus musculus [4])?
Answer: Its Time is 95.1 s.

Question: What about the Activity (Mus musculus [5]) of the same compound?
Answer: The Activity was “Non-toxic”.

Question: What about the Activity (Mus musculus [6]) of the same compound?
Answer: Its Activity is “Non-toxic”.

Question: What about the Activity (Mus musculus [7]) of the same compound?
Answer: The Activity was “Non-toxic”.

Question: Which results are given for `O=C(c1cnc2ccccc2n1)N1CCCC1`?
Answer: Kb [1]: 398 nM; Time (Mus musculus [2]): 139 s; Activity (Mus musculus [5]): Non-toxic; Activity (Mus musculus [6]): Non-toxic; Activity (Mus musculus [7]): Non-toxic

Question: Which results are given for `O=C(NC1CCCC1)c1cnc2ccccc2n1`?
Answer: Kb [1]: 316 nM; Time (Mus musculus [2]): 94.25 s; Time (Mus musculus [3]): 125 s; Time (Mus musculus [4]): 120 s; Activity (Mus musculus [5]): Non-toxic; Activity (Mus musculus [6]): Non-toxic; Activity (Mus musculus [7]): Non-toxic

Question: For `O=C(Nc1cccc(Cl)c1)c1cnc2ccccc2n1`, which Kb [1] is on record?
Answer: Its Kb is 1580 nM.

Question: What about the Time (Mus musculus [2]) of the same compound?
Answer: The Time was 151.2 s.

Question: And the Activity (Mus musculus [5])?
Answer: The Activity was “Non-toxic”.

Question: And the Activity (Mus musculus [6])?
Answer: Its Activity is “Non-toxic”.

Question: And the Activity (Mus musculus [7])?
Answer: Its Activity is “Non-toxic”.

Question: Which Kb [1] does the source give for `CC(=O)c1cccc(NC(=O)c2cnc3ccccc3n2)c1` here?
Answer: The Kb was 794 nM.

Question: What about the Time (Mus musculus [2]) of the same compound?
Answer: The Time was 132.4 s.

Question: And the Activity (Mus musculus [5])?
Answer: Its Activity is “Non-toxic”.

Question: And the Activity (Mus musculus [6])?
Answer: The Activity was “Non-toxic”.

Question: What about the Activity (Mus musculus [7]) of the same compound?
Answer: Its Activity is “Non-toxic”.

Question: For `O=C(Nc1nc2ccccc2s1)c1cnc2ccccc2n1`, which Kb [1] is on record?
Answer: The Kb was 31600 nM.

Question: What about the Time (Mus musculus [2]) of the same compound?
Answer: The Time was 115.1 s.

Question: And the Activity (Mus musculus [5])?
Answer: Its Activity is “Non-toxic”.

Question: What about the Activity (Mus musculus [6]) of the same compound?
Answer: Its Activity is “Non-toxic”.

Question: What about the Activity (Mus musculus [7]) of the same compound?
Answer: The Activity was “Non-toxic”.

Question: Which results are given for `Cc1c(Cl)cccc1NC(=O)c1cnc2ccccc2n1`?
Answer: Kb [1]: 25.1 nM; Time (Mus musculus [2]): 95.42 s; Time (Mus musculus [3]): 120 s; Time (Mus musculus [4]): 147 s; Activity (Mus musculus [5]): Non-toxic; Activity (Mus musculus [6]): Non-toxic; Activity (Mus musculus [7]): Non-toxic

Question: Which results are given for `COc1ccc(NC(=O)c2cnc3ccccc3n2)cc1`?
Answer: Kb [1]: 10000 nM; Time (Mus musculus [2]): 143.5 s; Activity (Mus musculus [5]): Non-toxic; Activity (Mus musculus [6]): Non-toxic; Activity (Mus musculus [7]): Non-toxic

Question: `CCCCNC(=O)c1cnc2ccccc2n1` was tested. Which Kb [1] did it give?
Answer: The Kb was 50.1 nM.

Question: And the Time (Mus musculus [2])?
Answer: Its Time is 97.5 s.

Question: And the Time (Mus musculus [3])?
Answer: Its Time is 121 s.

Question: And the Time (Mus musculus [4])?
Answer: Its Time is 103 s.

Question: And the Activity (Mus musculus [5])?
Answer: The Activity was “Non-toxic”.

Question: What about the Activity (Mus musculus [6]) of the same compound?
Answer: The Activity was “Non-toxic”.

Question: What about the Activity (Mus musculus [7]) of the same compound?
Answer: Its Activity is “Non-toxic”.

Question: `CCCNC(=O)c1cnc2ccccc2n1` was tested. Which Kb [1] did it give?
Answer: Its Kb is 200 nM.

Question: What about the Time (Mus musculus [2]) of the same compound?
Answer: Its Time is 92.33 s.

Question: And the Time (Mus musculus [3])?
Answer: Its Time is 148 s.

Question: What about the Time (Mus musculus [4]) of the same compound?
Answer: Its Time is 125 s.

Question: And the Activity (Mus musculus [5])?
Answer: Its Activity is “Non-toxic”.

Question: And the Activity (Mus musculus [6])?
Answer: The Activity was “Non-toxic”.

Question: And the Activity (Mus musculus [7])?
Answer: Its Activity is “Non-toxic”.

Question: Which results are given for `O=C(NNc1ccccc1)c1cnc2ccccc2n1`?
Answer: Kb [1]: 1580 nM; Time (Mus musculus [2]): 95.4 s; Time (Mus musculus [3]): 126 s; Time (Mus musculus [4]): 121 s; Activity (Mus musculus [5]): Non-toxic; Activity (Mus musculus [6]): Non-toxic; Activity (Mus musculus [7]): Non-toxic

Question: Which results are given for `O=C(Nc1ccc([N+](=O)[O-])cc1)c1cnc2ccccc2n1`?
Answer: Kb [1]: 10000 nM; Time (Mus musculus [2]): 106.32 s; Time (Mus musculus [3]): 142 s; Time (Mus musculus [4]): 108 s; Activity (Mus musculus [5]): Non-toxic; Activity (Mus musculus [6]): Non-toxic; Activity (Mus musculus [7]): Non-toxic

Question: With `O=C(Nc1ccc(NC(=O)c2cnc3ccccc3n2)cc1)c1ccccc1` as the compound, how does the Kb [1] read?
Answer: The Kb was 12600 nM.

Question: What about the Time (Mus musculus [2]) of the same compound?
Answer: Its Time is 125 s.

Question: And the Activity (Mus musculus [5])?
Answer: Its Activity is “Non-toxic”.

Question: And the Activity (Mus musculus [6])?
Answer: Its Activity is “Non-toxic”.

Question: And the Activity (Mus musculus [7])?
Answer: Its Activity is “Non-toxic”.

Question: Which results are given for `O=C(NCc1ccccc1)c1cnc2ccccc2n1`?
Answer: Kb [1]: 2000 nM; Time (Mus musculus [2]): 133 s; Activity (Mus musculus [5]): Non-toxic; Activity (Mus musculus [6]): Non-toxic; Activity (Mus musculus [7]): Non-toxic
